PubChem BioAssay AID330 (DTP/NCI, 2004)
“And” between values parts separate entries of the source, which are not always exact repeats. Equal values may be shown once. Inconclusive results and toxic doses are left out.

Tested on: P388 leukemia ip, CD2F1 mice, survival T/C
Assay: NCI In Vivo Anticancer Drug Screen. Data for tumor model P388 Leukemia (intraperitoneal) in CD2F1 (CDF1) mice
Details: endpoint: median survival time, higher = longer survival
Method in brief: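 Mice carrying the transplanted tumor received test compound or vehicle. Survival was recorded in each group, and the value is the treated-group measurement divided by that of the vehicle-treated control group.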

[1] = dose: 12.5 mg/kg/injection, schedule: Q01DX005 (ip), vehicle: Klucel (hydroxypropylcellulose) (HPC)
[2] = dose: 25.0 mg/kg/injection, schedule: Q01DX005 (ip), vehicle: Klucel (hydroxypropylcellulose) (HPC)
[3] = dose: 50.0 mg/kg/injection, schedule: Q01DX005 (ip), vehicle: Klucel (hydroxypropylcellulose) (HPC)

In the case of `C[C@]12C=CC(=O)C(O)=C1CC[C@@H]1[C@@H]2CC[C@]2(C)OC(=O)CC[C@@H]12`, the T/C (dose: 5.5 mg/kg/injection, schedule: Q01DX005 (ip), vehicle: Klucel (hydroxypropylcellulose) (HPC)) was 106 % of control, the T/C (dose: 11.0 mg/kg/injection, schedule: Q01DX005 (ip), vehicle: Klucel (hydroxypropylcellulose) (HPC)) was 106 % of control and the T/C (dose: 22.0 mg/kg/injection, schedule: Q01DX005 (ip), vehicle: Klucel (hydroxypropylcellulose) (HPC)) was 101 % of control. The T/C (dose: 44.0 mg/kg/injection, schedule: Q01DX005 (ip), vehicle: Klucel (hydroxypropylcellulose) (HPC)) was 106 % of control, the T/C (dose: 88.0 mg/kg/injection, schedule: Q01DX005 (ip), vehicle: Klucel (hydroxypropylcellulose) (HPC)) was 106 % of control and the T/C (dose: 176.0 mg/kg/injection, schedule: Q01DX005 (ip), vehicle: Klucel (hydroxypropylcellulose) (HPC)) was 107 % of control.

For `CCc1ccc[n+](-c2nc3c([O-])n(C)c(=O)n(C)c-3n2)c1`, the T/C (dose: 100.0 mg/kg/injection, schedule: Q04DX003 (ip), vehicle: saline) was 91 % of control, the T/C (dose: 200.0 mg/kg/injection, schedule: Q04DX003 (ip), vehicle: saline) was 100 % of control and the T/C (dose: 400.0 mg/kg/injection, schedule: Q04DX003 (ip), vehicle: saline) was 94 % of control.

`[CH3][Sn]([CH3])([n]1cnc(N)nc1=O)[n]1cnc(N)nc1=O` was tested, and the T/C (dose: 6.25 mg/kg/injection, schedule: Q01DX005 (ip), vehicle: Klucel (hydroxypropylcellulose) (HPC)) was 108 % of control, the T/C [1] was 120 % of control and 90 % of control and the T/C [2] was 112 % of control and 113 % of control. The T/C [3] was 105 % of control and 118 % of control.

`C/C(=N\NC(=S)SCc1ccccc1)c1ccccn1` was tested, and the T/C (dose: 3.12 mg/kg/injection, schedule: Q01DX009 (ip), vehicle: Klucel (hydroxypropylcellulose) (HPC)) was 108 % of control and the T/C (dose: 6.25 mg/kg/injection, schedule: Q01DX009 (ip), vehicle: Klucel (hydroxypropylcellulose) (HPC)) was 103 % of control and 110 % of control.

`COc1cc2cc[n+](C)cc2cc1OC` was tested, and the T/C (dose: 6.25 mg/kg/injection, schedule: Q01DX009 (ip), vehicle: water) was 90 % of control, the T/C (dose: 12.5 mg/kg/injection, schedule: Q01DX009 (ip), vehicle: water) was 102 % of control and the T/C (dose: 22.0 mg/kg/injection, schedule: Q01DX009 (ip), vehicle: water) was 121 % of control. For the same molecule, the T/C (dose: 25.0 mg/kg/injection, schedule: Q01DX009 (ip), vehicle: water) was 107 % of control, the T/C (dose: 33.0 mg/kg/injection, schedule: Q01DX009 (ip), vehicle: water) was 115 % of control and the T/C (dose: 75.0 mg/kg/injection, schedule: Q01DX009 (ip), vehicle: water) was 121 % of control. The T/C (dose: 100.0 mg/kg/injection, schedule: Q01DX009 (ip), vehicle: water) was 123 % of control.

For `CCCCCC1=CC2C(=O)NC(=O)NC12` (centres undefined), the T/C [1] was 98 % of control, the T/C [2] was 97 % of control and the T/C [3] was 105 % of control. The T/C (dose: 100.0 mg/kg/injection, schedule: Q01DX005 (ip), vehicle: Klucel (hydroxypropylcellulose) (HPC)) was 96 % of control.

In the case of `C=CCOC(=O)C(NC(=O)OCCCC)NC(=O)OCCCC`, the T/C (dose: 50.0 mg/kg/injection, schedule: Q01DX005 (ip), vehicle: saline with Tween-80) was 103 % of control, the T/C (dose: 100.0 mg/kg/injection, schedule: Q01DX005 (ip), vehicle: saline with Tween-80) was 100 % of control and the T/C (dose: 200.0 mg/kg/injection, schedule: Q01DX005 (ip), vehicle: saline with Tween-80) was 98 % of control.

`NC(=S)c1ncn(C2OC(CO)C(O)C2O)c1N` (centres undefined) was tested, and the T/C (dose: 12.5 mg/kg/injection, schedule: Q01DX009 (ip), vehicle: saline) was 104 % of control, the T/C (dose: 25.0 mg/kg/injection, schedule: Q01DX009 (ip), vehicle: saline) was 101 % of control and the T/C (dose: 50.0 mg/kg/injection, schedule: Q01DX009 (ip), vehicle: saline) was 101 % of control. The T/C (dose: 100.0 mg/kg/injection, schedule: Q01DX009 (ip), vehicle: saline) was 112 % of control, the T/C (dose: 200.0 mg/kg/injection, schedule: Q01DX009 (ip), vehicle: saline) was 112 % of control and the T/C (dose: 400.0 mg/kg/injection, schedule: Q01DX009 (ip), vehicle: saline) was 101 % of control.

`CN(N=O)P(=O)(Nc1ccccc1)Nc1ccccc1` was tested, and the T/C (dose: 6.25 mg/kg/injection, schedule: Q01DX009 (ip), vehicle: other) was 100 % of control, the T/C (dose: 25.0 mg/kg/injection, schedule: Q01DX009 (ip), vehicle: other) was 100 % of control and the T/C (dose: 50.0 mg/kg/injection, schedule: Q01DX009 (ip), vehicle: other) was 100 % of control.

In the case of `CN1C(=O)CC(Sc2ccccc2)c2ccccc21` (centres undefined), the T/C (dose: 25.0 mg/kg/injection, schedule: Q01DX009 (ip), vehicle: saline with Tween-80) was 96 % of control, the T/C (dose: 50.0 mg/kg/injection, schedule: Q01DX009 (ip), vehicle: saline with Tween-80) was 97 % of control and the T/C (dose: 100.0 mg/kg/injection, schedule: Q01DX009 (ip), vehicle: saline with Tween-80) was 93 % of control.

In the case of `CCCN(CCC)CCCCO`, the T/C (dose: 50.0 mg/kg/injection, schedule: Q04DX003 (ip), vehicle: saline with Tween-80) was 195 % of control, the T/C (dose: 100.0 mg/kg/injection, schedule: Q04DX003 (ip), vehicle: saline with Tween-80) was 100 % of control and the T/C (dose: 200.0 mg/kg/injection, schedule: Q04DX003 (ip), vehicle: saline with Tween-80) was 100 % of control.
